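GI50: concentration for 50% inhibition of growth. The concentration for full growth arrest is given as TGI.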
What was measured:
Assay in all cases: inhibition of tumour cell growth, NCI panel, 384-well format; in the data active means GI50 below about 0.43 µM; inactive means the rest
PC-3 prostate = tested on: PC-3 prostate
HL-60(TB) leukemia = tested on: HL-60(TB) leukemia
UACC-257 melanoma = tested on: UACC-257 melanoma
NCI/ADR-RES ovarian = tested on: NCI/ADR-RES ovarian
RPMI-8226 leukemia = tested on: RPMI-8226 leukemia
SNB-75 CNS = tested on: SNB-75 CNS
NCI-H522 lung = tested on: NCI-H522 lung
SN12C renal = tested on: SN12C renal
MALME-3M melanoma = tested on: MALME-3M melanoma
KM12 colon = tested on: KM12 colon
SF-268 CNS = tested on: SF-268 CNS
786-0 renal = tested on: 786-0 renal
ACHN renal = tested on: ACHN renal
SW-620 colon = tested on: SW-620 colon
HOP-62 NSCLC = tested on: HOP-62 NSCLC
SF-539 CNS = tested on: SF-539 CNS
OVCAR-3 ovarian = tested on: OVCAR-3 ovarian
RXF 393 renal = tested on: RXF 393 renal
M14 melanoma = tested on: M14 melanoma
MOLT-4 leukemia = tested on: MOLT-4 leukemia
UO-31 renal = tested on: UO-31 renal
U251 glioblastoma = tested on: U251 glioblastoma
CAKI-1 renal = tested on: CAKI-1 renal
MDA-MB-435 melanoma = tested on: MDA-MB-435 melanoma
BT-549 breast = tested on: BT-549 breast
SNB-19 CNS = tested on: SNB-19 CNS
HOP-92 NSCLC = tested on: HOP-92 NSCLC
MCF7 breast = tested on: MCF7 breast
DU-145 prostate = tested on: DU-145 prostate
UACC-62 melanoma = tested on: UACC-62 melanoma
SK-MEL-2 melanoma = tested on: SK-MEL-2 melanoma
CCRF-CEM leukemia = tested on: CCRF-CEM leukemia
HCT-15 colon = tested on: HCT-15 colon
K-562 leukemia = tested on: K-562 leukemia
HS 578T breast = tested on: HS 578T breast
SK-MEL-28 melanoma = tested on: SK-MEL-28 melanoma
IGROV1 ovarian = tested on: IGROV1 ovarian
OVCAR-5 ovarian = tested on: OVCAR-5 ovarian
MDA-MB-231 breast = tested on: MDA-MB-231 breast
HT29 colon = tested on: HT29 colon
OVCAR-8 ovarian = tested on: OVCAR-8 ovarian
NCI-H226 lung = tested on: NCI-H226 lung
EKVX NSCLC = tested on: EKVX NSCLC
MDA-MB-468 breast = tested on: MDA-MB-468 breast
HCT-116 colon = tested on: HCT-116 colon
OVCAR-4 ovarian = tested on: OVCAR-4 ovarian
T-47D breast = tested on: T-47D breast
HCC-2998 colon = tested on: HCC-2998 colon
SF-295 CNS = tested on: SF-295 CNS
NCI-H460 NSCLC = tested on: NCI-H460 NSCLC
NCI-H23 lung = tested on: NCI-H23 lung
TK-10 renal = tested on: TK-10 renal
NCI-H322M lung = tested on: NCI-H322M lung
SK-MEL-5 melanoma = tested on: SK-MEL-5 melanoma
A549 NSCLC = tested on: A549 NSCLC
SK-OV-3 ovarian = tested on: SK-OV-3 ovarian
LOX IMVI melanoma = tested on: LOX IMVI melanoma
SR leukemia = tested on: SR leukemia
COLO 205 colon = tested on: COLO 205 colon
A498 renal = tested on: A498 renal

CC1=C(/C=C/C(C)=C/C=C/C(C)=C/C(=O)O)C(C)(C)CCC1
46 µM: TGI (HT29 colon)
72.2 µM: TGI (MDA-MB-231 breast)
58.3 µM: TGI (OVCAR-8 ovarian)
34.9 µM: TGI (OVCAR-3 ovarian)
39 µM: TGI (HCT-116 colon)
79.2 µM: TGI (SNB-75 CNS)
24.9 µM: TGI (SF-539 CNS)
active: GI50 (HL-60(TB) leukemia) 0.0259 µM | GI50 (RPMI-8226 leukemia) 0.293 µM
40.2 µM: TGI (UACC-62 melanoma)
89.1 µM: TGI (SN12C renal)
11.3 µM: TGI (RPMI-8226 leukemia)
57.5 µM: TGI (RXF 393 renal)
inactive: GI50 (PC-3 prostate) 19.8 µM | GI50 (UACC-257 melanoma) 33.4 µM | GI50 (NCI/ADR-RES ovarian) > 100 µM | GI50 (SNB-75 CNS) 31.5 µM | GI50 (NCI-H522 lung) 24.1 µM | GI50 (SN12C renal) 25.9 µM | GI50 (MALME-3M melanoma) 0.95 µM | GI50 (KM12 colon) 38 µM | GI50 (SF-268 CNS) 22.9 µM | GI50 ([…]-0 renal) 29.7 µM | GI50 (ACHN renal) 52.2 µM | GI50 (SW-620 colon) 47.3 µM | GI50 (HOP-62 NSCLC) > 100 µM | GI50 (SF-539 CNS) 12 µM | GI50 (OVCAR-3 ovarian) 19.6 µM | GI50 (RXF 393 renal) 24.3 µM | GI50 (M14 melanoma) 19.4 µM | GI50 (MOLT-4 leukemia) 14.6 µM | GI50 (UO-31 renal) 86 µM | GI50 (U251 glioblastoma) > 100 µM | GI50 (CAKI-1 renal) 38.6 µM | GI50 (MDA-MB-435 melanoma) 55.6 µM | GI50 (BT-549 breast) 20.3 µM | GI50 (SNB-19 CNS) 30.1 µM | GI50 (HOP-92 NSCLC) 38.9 µM | GI50 (MCF7 breast) 18 µM | GI50 (DU-145 prostate) 45.7 µM | GI50 (UACC-62 melanoma) 19.2 µM | GI50 (SK-MEL-2 melanoma) 27.7 µM | GI50 (CCRF-CEM leukemia) 20.1 µM | GI50 (HCT-15 colon) 22.7 µM | GI50 (K-562 leukemia) 21.5 µM | GI50 (HS 578T breast) 16.4 µM | GI50 (SK-MEL-28 melanoma) 47.1 µM | GI50 (IGROV1 ovarian) > 100 µM | GI50 (OVCAR-5 ovarian) 37.2 µM | GI50 (MDA-MB-231 breast) 25.4 µM | GI50 (HT29 colon) 21.6 µM | GI50 (OVCAR-8 ovarian) 24.1 µM | GI50 (NCI-H226 lung) 33.2 µM | GI50 (EKVX NSCLC) > 100 µM | GI50 (MDA-MB-468 breast) 25.4 µM | GI50 (HCT-116 colon) 20.6 µM | GI50 (OVCAR-4 ovarian) 46 µM
75.9 µM: TGI (786-0 renal)
40 µM: TGI (HS 578T breast)
39.7 µM: TGI (PC-3 prostate)
27.9 µM: TGI (MOLT-4 leukemia)
> 100 µM: TGI (UACC-257 melanoma) | TGI (NCI/ADR-RES ovarian) | TGI (KM12 colon) | TGI (ACHN renal) | TGI (SW-620 colon) | TGI (HOP-62 NSCLC) | TGI (UO-31 renal) | TGI (U251 glioblastoma) | TGI (CAKI-1 renal) | TGI (MDA-MB-435 melanoma) | TGI (SNB-19 CNS) | TGI (HOP-92 NSCLC) | TGI (MCF7 breast) | TGI (DU-145 prostate) | TGI (SK-MEL-28 melanoma) | TGI (IGROV1 ovarian) | TGI (OVCAR-5 ovarian) | TGI (NCI-H226 lung) | TGI (EKVX NSCLC) | TGI (OVCAR-4 ovarian)
48.4 µM: TGI (MDA-MB-468 breast)
49.7 µM: TGI (SK-MEL-2 melanoma)
36.5 µM: TGI (BT-549 breast)
38 µM: TGI (M14 melanoma)
52.6 µM: TGI (HCT-15 colon)
49.1 µM: TGI (SF-268 CNS)
16.9 µM: TGI (HL-60(TB) leukemia)
51.5 µM: TGI (NCI-H522 lung)
41.3 µM: TGI (K-562 leukemia)
34.5 µM: TGI (CCRF-CEM leukemia)

Cc1ccc(NS(=O)(=O)c2cccc(C#N)c2)c2[nH]cc(C#N)c12
87.6 µM: TGI (OVCAR-3 ovarian)
43.9 µM: TGI (NCI-H23 lung)
0.799 µM: TGI (SR leukemia)
13.6 µM: TGI (MOLT-4 leukemia)
95.9 µM: TGI (SK-MEL-28 melanoma)
70.6 µM: TGI (NCI-H226 lung)
active: GI50 (NCI-H522 lung) 0.292 µM | GI50 (IGROV1 ovarian) 0.247 µM | GI50 (SR leukemia) 0.155 µM | GI50 (MDA-MB-468 breast) 0.165 µM | GI50 (HCT-116 colon) 0.246 µM
65.6 µM: TGI (HS 578T breast)
83.9 µM: TGI (EKVX NSCLC)
inactive: GI50 (T-47D breast) 23.1 µM | GI50 (PC-3 prostate) 1.44 µM | GI50 (HL-60(TB) leukemia) 12 µM | GI50 (UACC-257 melanoma) 48.6 µM | GI50 (NCI/ADR-RES ovarian) 1.24 µM | GI50 (RPMI-8226 leukemia) 14.5 µM | GI50 (HCC-2998 colon) 24 µM | GI50 (SNB-75 CNS) 29.9 µM | GI50 (SN12C renal) 27.7 µM | GI50 (MALME-3M melanoma) 61.7 µM | GI50 (KM12 colon) 27.1 µM | GI50 (SF-268 CNS) 37.4 µM | GI50 (SF-295 CNS) 7.23 µM | GI50 ([…]-0 renal) 11.7 µM | GI50 (ACHN renal) 10.4 µM | GI50 (SW-620 colon) 14.7 µM | GI50 (HOP-62 NSCLC) 12.2 µM | GI50 (NCI-H460 NSCLC) 17.6 µM | GI50 (SF-539 CNS) 37.5 µM | GI50 (OVCAR-3 ovarian) 22.2 µM | GI50 (RXF 393 renal) 15.6 µM | GI50 (M14 melanoma) 26.5 µM | GI50 (NCI-H23 lung) 20 µM | GI50 (TK-10 renal) 5.02 µM | GI50 (MOLT-4 leukemia) 0.66 µM | GI50 (UO-31 renal) 17.8 µM | GI50 (U251 glioblastoma) 16.9 µM | GI50 (CAKI-1 renal) 18 µM | GI50 (MDA-MB-435 melanoma) 10.6 µM | GI50 (BT-549 breast) 24.9 µM | GI50 (SNB-19 CNS) 20.2 µM | GI50 (HOP-92 NSCLC) 19.9 µM | GI50 (MCF7 breast) 11 µM | GI50 (DU-145 prostate) 4.29 µM | GI50 (NCI-H322M lung) 39.4 µM | GI50 (UACC-62 melanoma) 0.777 µM | GI50 (SK-MEL-2 melanoma) 33.3 µM | GI50 (SK-MEL-5 melanoma) 15.7 µM | GI50 (CCRF-CEM leukemia) 15.1 µM | GI50 (HCT-15 colon) 10.3 µM | GI50 (A549 NSCLC) 15.1 µM | GI50 (K-562 leukemia) 0.525 µM | GI50 (SK-OV-3 ovarian) 6.53 µM | GI50 (HS 578T breast) 16.2 µM | GI50 (SK-MEL-28 melanoma) 32.9 µM | GI50 (LOX IMVI melanoma) 32.1 µM | GI50 (OVCAR-5 ovarian) 31.1 µM | GI50 (MDA-MB-231 breast) 14.7 µM | GI50 (HT29 colon) 47.2 µM | GI50 (NCI-H226 lung) 12.4 µM | GI50 (COLO 205 colon) 10.5 µM | GI50 (EKVX NSCLC) 28.7 µM | GI50 (A498 renal) 19.7 µM | GI50 (OVCAR-4 ovarian) 18.2 µM
44.5 µM: TGI (MDA-MB-435 melanoma)
54.6 µM: TGI (HOP-92 NSCLC)
43.3 µM: TGI (CCRF-CEM leukemia)
42.1 µM: TGI (SF-295 CNS)
60 µM: TGI (SK-MEL-2 melanoma)
52.7 µM: TGI (RXF 393 renal)
> 100 µM: TGI (PC-3 prostate) | TGI (UACC-257 melanoma) | TGI (NCI/ADR-RES ovarian) | TGI (HCC-2998 colon) | TGI (SNB-75 CNS) | TGI (SN12C renal) | TGI (MALME-3M melanoma) | TGI (KM12 colon) | TGI (SF-268 CNS) | TGI (786-0 renal) | TGI (ACHN renal) | TGI (SW-620 colon) | TGI (HOP-62 NSCLC) | TGI (NCI-H460 NSCLC) | TGI (SF-539 CNS) | TGI (M14 melanoma) | TGI (TK-10 renal) | TGI (U251 glioblastoma) | TGI (CAKI-1 renal) | TGI (SNB-19 CNS) | TGI (MCF7 breast) | TGI (DU-145 prostate) | TGI (NCI-H322M lung) | TGI (HCT-15 colon) | TGI (A549 NSCLC) | TGI (K-562 leukemia) | TGI (SK-OV-3 ovarian) | TGI (LOX IMVI melanoma) | TGI (IGROV1 ovarian) | TGI (OVCAR-5 ovarian) | TGI (MDA-MB-231 breast) | TGI (HT29 colon) | TGI (COLO 205 colon) | TGI (HCT-116 colon) | TGI (A498 renal) | TGI (OVCAR-4 ovarian)
38 µM: TGI (SK-MEL-5 melanoma)
57.6 µM: TGI (BT-549 breast)
0.629 µM: TGI (MDA-MB-468 breast)
26 µM: TGI (HL-60(TB) leukemia)
28 µM: TGI (UACC-62 melanoma)
53.9 µM: TGI (UO-31 renal)
47.7 µM: TGI (RPMI-8226 leukemia)
15.3 µM: TGI (NCI-H522 lung)
79.2 µM: TGI (T-47D breast)

Reference: PubChem BioAssay (NCI)
